“And” between values parts separate entries of the source, which are not always exact repeats. Equal entries are not always repeated.
Tested on: 171881-019-R-J1-PDC complex spheroid viability
Test: Anticancer human tumor 171881-019-R-J1-PDC patient-derived invasive breast carcinoma cell line growth inhibition
Conditions: for viability, T/C: stronger effect = lower value
Outline: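 Complex spheroids of tumor cells with HUVEC and human MSCs, exposed to iadademstat combined with other agents. Each agent tested in half-log steps from near clinical Cmax (else 10 microM top), DMSO ≤0.25%.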

[1] = curve of first compound, second compound 0.1 µM
[2] = curve of first compound, second compound 0.316 µM
[3] = curve of first compound, second compound 1 µM
[4] = curve of first compound, second compound 3.16 µM
[5] = curve of first compound, second compound 10 µM
[6] = second compound 0.1 µM, first compound 0.0316 µM
[7] = second compound 0.1 µM, first compound 0.1 µM
[8] = second compound 0.1 µM, first compound 0.316 µM
[9] = second compound 0.1 µM, first compound 1 µM
[10] = second compound 0.316 µM, first compound 0.0316 µM
[11] = second compound 0.316 µM, first compound 0.1 µM
[12] = second compound 0.316 µM, first compound 0.316 µM
[13] = second compound 0.316 µM, first compound 1 µM
[14] = second compound 1 µM, first compound 0.0316 µM
[15] = second compound 1 µM, first compound 0.1 µM
[16] = second compound 1 µM, first compound 0.316 µM
[17] = second compound 1 µM, first compound 1 µM
[18] = second compound 3.16 µM, first compound 0.0316 µM
[19] = second compound 3.16 µM, first compound 0.1 µM
[20] = second compound 3.16 µM, first compound 0.316 µM
[21] = second compound 3.16 µM, first compound 1 µM
[22] = second compound 10 µM, first compound 0.0316 µM
[23] = second compound 10 µM, first compound 0.1 µM
[24] = second compound 10 µM, first compound 0.316 µM
[25] = second compound 10 µM, first compound 1 µM
[26] = second compound 0.1 µM, first compound 0.00316 µM
[27] = second compound 0.1 µM, first compound 0.01 µM
[28] = second compound 0.316 µM, first compound 0.00316 µM
[29] = second compound 0.316 µM, first compound 0.01 µM
[30] = second compound 1 µM, first compound 0.00316 µM
[31] = second compound 1 µM, first compound 0.01 µM
[32] = second compound 3.16 µM, first compound 0.00316 µM
[33] = second compound 3.16 µM, first compound 0.01 µM
[34] = second compound 10 µM, first compound 0.00316 µM
[35] = second compound 10 µM, first compound 0.01 µM

SMILES	IC50 [1] [nM]	IC50 [2] [nM]	IC50 [3] [nM]	IC50 [4] [nM]	IC50 [5] [nM]	viability, T/C [6] [%]	viability, T/C [7] [%]	viability, T/C [8] [%]	viability, T/C [9] [%]	viability, T/C [10] [%]	viability, T/C [11] [%]	viability, T/C [12] [%]	viability, T/C [13] [%]	viability, T/C [14] [%]	viability, T/C [15] [%]	viability, T/C [16] [%]	viability, T/C [18] [%]	viability, T/C [19] [%]	viability, T/C [22] [%]	viability, T/C [23] [%]	further results
CC(C)c1c(-c2ccccc2)nc2c(C#N)c[nH]n2c1=O + NC1CCC(NC2CC2c2ccccc2)CC1	> 10000	> 10000	> 10000	> 10000	> 10000	89.7	75.8	82.7	92.2	90.7	93.3	82.6	96.1	93.8	81.3	85.5	96.1	90.5	87.2	90.4	viability, T/C (second compound 0.1 µM, first compound 3.16 µM): 82.9%; viability, T/C (second compound 0.1 µM, first compound 10 µM): 97.8%; viability, T/C (second compound 0.316 µM, first compound 3.16 µM): 94%; viability, T/C (second compound 0.316 µM, first compound 10 µM): 91.6%; viability, T/C [17]: 100%; viability, T/C (second compound 1 µM, first compound 3.16 µM): 81.5%; viability, T/C (second compound 1 µM, first compound 10 µM): 91.2%; viability, T/C [20]: 94.3%; viability, T/C [21]: 80.3%; viability, T/C (second compound 3.16 µM, first compound 3.16 µM): 101%; viability, T/C (second compound 3.16 µM, first compound 10 µM): 97.3%; viability, T/C [24]: 77.3%; viability, T/C [25]: 92.6%; viability, T/C (second compound 10 µM, first compound 3.16 µM): 93.4%; viability, T/C (second compound 10 µM, first compound 10 µM): 90.4%
O=C(C=Cn1cnc(-c2cc(C(F)(F)F)cc(C(F)(F)F)c2)n1)NNc1cnccn1	–	–	–	–	–	–	–	–	–	–	–	–	–	–	–	–	–	–	–	–	viability, T/C (compound 0.00316 µM): 16.8% and 17.6%; viability, T/C (compound 0.01 µM): 12.1% and 12.7%; viability, T/C (compound 0.0316 µM): 4.83% and 4.44%; viability, T/C (compound 0.1 µM): 1.49% and 1.82%; viability, T/C (compound 0.316 µM): 1.62% and 1.88%; viability, T/C (compound 1 µM): 1.54% and 1.63%; IC50 (curve of compound): < 3.16 nM
Nc1ncn(C2CC(O)C(CO)O2)c(=O)n1 (configuration not stated) + NC1CCC(NC2CC2c2ccccc2)CC1	> 1000	> 1000	> 1000	> 1000	> 1000	93.1	115	111	101	92.9	122	115	94.2	95.6	123	117	106	122	112	102	viability, T/C [26]: 88.4%; viability, T/C [27]: 93.3%; viability, T/C [28]: 96%; viability, T/C [29]: 81.7%; viability, T/C [30]: 94.9%; viability, T/C [31]: 81.1%; viability, T/C [17]: 97.1%; viability, T/C [32]: 82.5%; viability, T/C [33]: 92.9%; viability, T/C [20]: 114%; viability, T/C [21]: 97.7%; viability, T/C [34]: 86.1%; viability, T/C [35]: 105%; viability, T/C [24]: 111%; viability, T/C [25]: 99.8%
CC1COCCN1c1cc(-c2ccnn2C)c2ccnc(-c3ccn[nH]3)c2n1 (configuration not stated) + NC1CC1c1ccc(-c2cccc(O)c2)cc1	6.07	4.76	4.38	6.57	4.98	23.1	9.09	6.72	6.42	23.6	9.96	6.7	5.87	25.3	9.83	6.55	23.8	8.53	22.4	12.8	viability, T/C [26]: 54.6%; viability, T/C [27]: 46.5%; viability, T/C [28]: 53.6%; viability, T/C [29]: 43.5%; viability, T/C [30]: 51.1%; viability, T/C [31]: 47%; viability, T/C [17]: 5.67%; viability, T/C [32]: 56%; viability, T/C [33]: 46.4%; viability, T/C [20]: 5.95%; viability, T/C [21]: 5.45%; viability, T/C [34]: 54.1%; viability, T/C [35]: 44%; viability, T/C [24]: 7.13%; viability, T/C [25]: 6.24%
CC[C@@]1(O)C(=O)OCc2c1cc1n(c2=O)Cc2cc3c(CN(C)C)c(O)ccc3nc2-1 + NC1CC1c1ccc(-c2cccc(O)c2)cc1	71.1	80.4	36.6	37.4	21	64.3	44.2	–	–	61.9	46.4	–	–	53.2	39.6	–	55.9	33.6	47	37.4	viability, T/C (second compound 0.1 µM, first compound 0.000316 µM): 103%; viability, T/C (second compound 0.1 µM, first compound 0.001 µM): 104%; viability, T/C [26]: 84.4%; viability, T/C [27]: 68.9%; viability, T/C (second compound 0.316 µM, first compound 0.000316 µM): 108%; viability, T/C (second compound 0.316 µM, first compound 0.001 µM): 107%; viability, T/C [28]: 87.8%; viability, T/C [29]: 70.5%; viability, T/C (second compound 1 µM, first compound 0.000316 µM): 103%; viability, T/C (second compound 1 µM, first compound 0.001 µM): 105%; viability, T/C [30]: 90.7%; viability, T/C [31]: 70.3%; viability, T/C (second compound 3.16 µM, first compound 0.000316 µM): 101%; viability, T/C (second compound 3.16 µM, first compound 0.001 µM): 96.7%; viability, T/C [32]: 90.5%; viability, T/C [33]: 66.8%; viability, T/C (second compound 10 µM, first compound 0.000316 µM): 90.1%; viability, T/C (second compound 10 µM, first compound 0.001 µM): 85.3%; viability, T/C [34]: 78.9%; viability, T/C [35]: 57.3%
COc1cc(Nc2ncc3c(n2)-c2ccc(Cl)cc2C(c2c(F)cccc2OC)=NC3)ccc1C(=O)O + NC1CC1c1ccc(-c2cccc(O)c2)cc1	442	506	517	380	301	64.1	62.7	58.5	29.4	68	65.7	61.9	32.6	68.7	69.2	63.2	72.5	69.1	64.1	56.9	viability, T/C [26]: 59.8%; viability, T/C [27]: 67.3%; viability, T/C [28]: 60.5%; viability, T/C [29]: 68.1%; viability, T/C [30]: 67.2%; viability, T/C [31]: 70%; viability, T/C [17]: 31.9%; viability, T/C [32]: 71.3%; viability, T/C [33]: 75.5%; viability, T/C [20]: 54.7%; viability, T/C [21]: 25.4%; viability, T/C [34]: 59.4%; viability, T/C [35]: 61%; viability, T/C [24]: 49.9%; viability, T/C [25]: 25.3%

— PubChem BioAssay AID1918932 (Molecular Pharmacology Branch, DTP, NCI, 2023)
